# Data reported in a melting point compilation (Tetko et al.; mined from patent text by program, amines drawn as free bases though some values may be those of a salt).
row,melting point [°C],SMILES
1,159 to 160,CCOc1cc(C=O)ccc1OCc1nc(-c2ccco2)oc1C
2,186,CC(C)CNS(=O)(=O)c1cccc(NC(=O)c2cnn3c(C(F)F)cc(-c4ccc(C(F)(F)F)cc4)nc23)c1
3,107 to 109,CSc1nn2c(N3CCN(C)CC3)ccnc2c1S(=O)(=O)c1ccccc1
4,> 330,CC(C)(C)c1ccc(N2C(=O)c3ccc4c5cccc6cccc(c7ccc(c3c47)C2=O)c65)cc1
5,94 to 95,CN1C(=O)CC[C@]2(C)c3ccc(Sc4cnccn4)cc3CC[C@@H]12
6,132 to 134,CC(=O)c1ccc(OCc2ccsc2)cc1OC(CCc1ccccc1C#N)C(=O)O (stereo unspecified)
7,64 to 65,CCCCCC(=O)CCc1ccc(CCCCCCCC(=O)O)o1
8,196 to 197,CCOC(=O)C=Cc1ccc(C(=O)O)cc1
9,198,O=C1C=C(O)CC(c2ccc3c(c2)CCC3)C1 (stereo unspecified)
10,130 to 131,O=C1CCc2ccc(OCCCN3CCCN(c4cccc(Cl)c4Cl)CC3)cc2N1
11,67 to 69,CC(=O)Oc1c(Cc2ccccc2)ccc2ccccc12
12,127 to 128,O=C1COCc2cc(-c3ccccc3)ccc21
13,110 to 112,CSC(C)(C)C(=O)N[C@@H](CS)C(=O)O
14,253 to 254,COc1ccc2[nH]c3c([N+](=O)[O-])cc([N+](=O)[O-])c(Cl)c3c(=O)c2c1
15,78 to 80,CCCc1ccc(CCCOc2c(C)cc(-c3nnn(C)n3)cc2C)nn1
16,170 to 173,O=C(O)CCCCN(C(=O)c1ccc(Cl)cc1)c1ccccc1-c1ccccc1
17,150 to 165,NCCNc1ccc2[nH]ncc2c1
18,125 to 130,CCCCC1(N(C)C)CC=C(c2[nH]c3ccccc3c2CCN2C(=O)c3ccccc3C2=O)CC1 (stereo unspecified)
19,175 to 176,CC(C)C(NC(=O)OCc1ccccc1)C(=O)NC(Cc1ccccc1)C(O)C(Cc1ccccc1)NC(=O)C(NC(=O)N1CCN(C)CC1)C(C)C (stereo unspecified)
20,79 to 82,CCCOc1cc(CCCOc2c(CC(=O)O)cccc2OC)n(Cc2ccccc2OC)n1
21,120 to 122,COc1ccc([N+](=O)[O-])c(Br)c1OC
22,119,CCC(O)CCCOc1ccccc1Oc1ccccc1OCCCC(O)CC (stereo unspecified)
23,96,CC(C)(C)c1cccc(S(=O)(=O)n2c(Cc3ccc(CNS(C)(=O)=O)cc3)cc3cc(C(F)(F)F)ccc32)c1
24,131 to 133,COC1(c2cc(F)cc(Sc3ccc4c(c3)SCC(=O)N4C)c2)CCOCC1

row,melting point [°C],SMILES
1,120 to 122,COCC1CN(c2ccc(C3CCC(CCNC(C)=O)CC3)cc2)C(=O)O1 (racemic)
2,117 to 118,COc1cccc(Oc2nccc(-c3c(-c4ccc(F)cc4)ncn3C3CCNCC3)n2)c1
3,120 to 122,CS(=O)(=O)c1ccc(-c2c(F)c3cccccc-3c2-c2ccccc2)cc1
4,94,C=Cc1ccc(CC(=O)O)cc1
5,118 to 119,CCc1nn(C2CCCC2)c2cc(C(=O)N(C)c3c(Cl)cncc3Cl)ccc12
6,208 to 209,OC[C@@H]1O[C@H](n2c(NC3CC3)nc3c(Cl)c(Cl)c(Cl)cc32)[C@@H](O)[C@H]1O
7,234 to 236,CCC(C)NC1=NS(=O)(=O)c2cc(C(F)(F)F)ccc2N1 (stereo unspecified)
8,90 to 91,CCN(CC)c1nc(Cl)nc2c(SC)ncnc12
9,144 to 145,CCOC(=O)C(=O)CC(=O)c1cn(Cc2ccc(F)cc2)c2cc(Cl)c(Cl)cc2c1=O
10,134 to 136,CC(C)CN1C(=O)CN=C(N2CCN(C)CC2)c2ccccc21
11,243,O=C1NC(=O)N2c3ccc(Cl)cc3[C@H]3CCN4CCC[C@H]1[C@H]4[C@H]32 (racemic)
12,281 to 282,COc1ccc2nc3ccc(CC(=O)O)cn3c(=O)c2c1
13,135 to 136,O=C(O)C(=O)c1ccc(S(=O)(=O)CCOc2ccc3ccccc3c2)cc1
14,157 to 159,CN1CCCC1=NC(=O)Nc1cc(Cl)cc(Cl)c1
15,90 to 91,CCCOc1cc(CO)n(Cc2ccc3ccccc3n2)n1
16,197 to 199,COC(=O)c1nc2cc(C)cc(Cl)c2c(O)c1C(=O)OC
17,153 to 155,Cc1ccc(C(=O)c2ccc(Cc3c(Cl)cc(N)cc3Cl)cc2)cn1
18,136 to 138,C=CCNC(=O)c1ccc(-n2c(C)ccc2C)cc1Br
19,110,Cc1ccc(S(=O)(=O)n2ccc3c(C(=O)c4ccccc4O)cccc32)cc1
20,129 to 131,COc1ccc(C)cc1NC(=O)Nc1ccc(N2CCN(C(=O)Nc3ccc(OCCO)cc3Cl)C(C)C2)cc1 (stereo unspecified)
21,173 to 175,CC(C)(C)C(NC(=O)c1ccc(Cl)cc1)NC(=NC#N)NCc1ccc(Cl)cc1 (stereo unspecified)
22,192 to 193,CCOC(=O)C(=O)c1csc(NC(=S)Nc2ccccc2F)n1
23,117,C[C@@H](CN(Cc1ccccc1)Cc1ccccc1)OC(=O)N1C(C)(C)COC1(C)C
24,143 to 145,Cn1ncnc1COc1nc2c(cc1-c1cccc(F)c1)nnn2-c1ccccc1F

row,melting point [°C],SMILES
1,170,NS(=O)(=O)c1cc(C(=O)OCC(=O)N2CCC(CCO[N+](=O)[O-])CC2)c(NCc2ccco2)cc1Cl
2,111 to 114,O=C(Nc1ccccc1[N+](=O)[O-])C12CC3CC(CC(C3)C1)C2
3,245 to 246,Cc1cnc(C(=O)c2[nH]c3ccc(Cl)cc3c2CC(=O)O)cc1C
4,32 to 35,CCOC(=O)c1nsc(-c2ccccc2)n1
5,122 to 124,COc1ccc2c(c1)N(CCCCl)c1cccc(S(C)(=O)=O)c1S2
6,72 to 73,CC1=NCN(c2csc(Br)c2)O1
7,162 to 164,N=C(N)NOc1nccc2ccccc12
8,113 to 115,COCCOCCOc1ccc2c(c1)S(=O)(=O)N(CCl)C2=O
9,105 to 107,CCOc1cccc(C(S)C(=O)O)c1 (stereo unspecified)
10,61 to 62,CCOC(=O)c1cnc2ccc(C3CCCCCC3)cc2c1Cl
11,78 to 81,CCOC(=O)CN(CCc1ccccc1)C(=O)CCc1nc2c(F)c(F)cc(F)c2s1
12,92 to 93,CCOC(=O)c1cnc(-c2cc3cccc([N+](=O)[O-])c3n2COC)s1
13,137 to 139,Cc1ccc(S(=O)(=O)NC2CCCCC2NC(=O)OC(C)(C)C)cc1 (stereo unspecified)
14,189 to 190,O=C(N1C=CC2=C(CCC=C2)c2ccccc21)n1ccnc1
15,154,FC(F)(F)c1cn2c(c1-c1ccccc1)CCC2
16,238 to 239,Cc1cc(-c2sc(N3CCN(Cc4ccc(C(F)(F)F)cc4)C3=O)nc2C)n[nH]1
17,142 to 144,CCN1CCN(CCCC#Cc2cn(Cc3ncc(C)c(OC)c3C)c3nc(N)nc(Cl)c23)CC1
18,91 to 92,CCC(=O)NCc1c[nH]c2ccccc12
19,217 to 219,NC(=O)[C@@H]1[C@H](Nc2c(Br)cnc3[nH]c(-c4ccc(CN5CCOCC5)cc4)nc23)[C@H]2C=C[C@@H]1C2
20,103 to 105,O=Cc1ccc(Cl)cc1C1(c2ccccc2F)OCCO1
21,154 to 160,CCOC(=O)Cn1c(=O)sc2cc(N)c(Cl)cc21
22,153 to 155,CONC(=O)NC1(c2ccc(C(C)C)cc2OC)C(=O)c2ccccc2C1=O
23,146,CCc1cc(OCCCN(C)Cc2ccc(OC)c(OC)c2)ccc1NC(=O)c1cccc2c(=O)c3cccc(F)c3[nH]c12
24,244 to 247,Cn1c(=O)ccc2cnc(Nc3ccccc3)nc21

row,melting point [°C],SMILES
1,108 to 109,CC(=O)SCC(Cc1ccccc1)C(=O)Nc1cccc(C(=O)OCc2ccccc2)c1 (stereo unspecified)
2,209 to 210,O=C(Nc1nnn(CC(F)(F)F)n1)C1c2ccccc2Oc2ccccc21
3,187 to 191,O=C(/C=C/c1ccc2ccccc2c1)Nc1ccccc1-c1nnn[nH]1
4,103 to 104,COC(=O)C(c1ccc(Cl)cc1)c1ncc(C(F)(F)F)cc1Cl (stereo unspecified)
5,111 to 112,O[C@@H]1C(Cl)=CCC[C@@H]1O
6,174 to 175,CC(C)Cn1c(=O)n(C)c(=O)c2c(S(=O)(=O)CCCC(=O)O)c(Cc3cccc4ccccc34)sc21
7,203 to 204,COc1ccc2nc(NC(=O)COC(=O)c3ccccc3)sc2c1
8,119,Clc1ccc(Oc2ccc(Cl)nn2)cc1
9,122 to 124,O=S1(=O)NCN(CCF)c2ccc(Br)cc21
10,112 to 113,CCOC(=NC(=O)c1ccc(C(F)(F)F)cc1)N1Cc2ccccc2-c2ccccc2C1
11,227,CC(=O)OC1CSC(Oc2ccc(-c3cccnc3F)nc2Cl)C(OC(C)=O)C1OC(C)=O (stereo unspecified)
12,90 to 96,Cn1c(=O)c2ccccc2n(CCCBr)c1=O
13,246 to 250,Cc1cc(-c2ccccc2)n2nc(N)nc2n1
14,93 to 96,CC(C)(C)c1cc2c(s1)Nc1ccccc1N=C2N1CCN[C@@H](CCc2ccccc2)C1
15,170 to 171,COc1cc2[nH]c3c(OC)c(OC)ccc3c2cc1OC
16,194 to 195,COc1ccccc1OCC(O)CN1CCC(NC(=O)NC(=O)c2ccc(F)cc2)CC1 (stereo unspecified)
17,212 to 213,O=S(=O)(c1ccc(F)cc1)c1c[nH]c2ncccc12
18,99 to 100,Cc1cc(C=Cc2ccccc2OCC2CO2)on1 (stereo unspecified)
19,177 to 178,CC(C)Cc1nc2c(N)nc3ccccc3c2n1CCOc1ccccc1
20,46 to 47,CCOC(=O)CS(=O)CCCCl (stereo unspecified)
21,197 to 198,O=c1c2[nH]c(C(C3CC3)C3CC3)nc2n(C2CC2)c(=O)n1C1CC1
22,107 to 110,COc1cc(Br)c(O)c(C=O)c1
23,102 to 104,Cc1cc(C)c2c(n1)-c1ccccc1C2=O
24,77 to 79,CCCCCCCCCCCCCCOc1cc(C(=O)OC)ccc1OC

row,SMILES,melting point [°C]
1,Clc1ccc2c(c1)N(C1CN3CCC1CC3)c1ccccc1S2 (stereo unspecified),165
2,Nc1ncc(C(=O)CBr)cc1Cl,134
3,FC1(c2cn(-c3ccc(Br)cc3)nn2)CN2CCC1CC2 (stereo unspecified),127
4,"CN1C(=O)CN(C(=O)Cl)C(c2ccccc2)c2cc(Cl)ccc21 (single isomer, unassigned; (-))",201 to 204
5,COCC(COC)Oc1ccc(C#CC2(O)CN3CCC2CC3)cc1 (stereo unspecified),125 to 127
